From patent US12391683B2, “Therapeutic compounds and methods” (Actio Biosciences, Inc., priority 2022, dated 2025)
“And” between values parts separate entries of the source, which are not always exact repeats. Equal values may be shown once.

Assays:
Hepatocytes [1] = experiment: Hepatocytes predicted clearance, rat
Hepatocytes [2] = experiment: Hepatocytes predicted clearance, dog
Hepatocytes [3] = experiment: Hepatocytes predicted clearance, cyno
Hepatocytes [4] = experiment: Hepatocytes predicted clearance, mouse
Hepatocytes [5] = experiment: Hepatocytes predicted clearance, human
Human TRPV4 = Human TRPV4 (Homo sapiens, UniProt Q9HBA0); experiment: TRPV4 calcium flux assay (FLIPR, antagonist mode); type: cell-based; set-up: HiBiT (inferred from the expression read-out); host or cells: HEK293T; settings: HEK293T cells transfected with hTRPV4; antagonist mode vs EC80 of TRPV4 agonist; average of at least 3 separate experiments; read-out: Human TRPV4 Ca2+ Assay IC50
Chain of Human TRPV4 (Q9HBA0 whole entry): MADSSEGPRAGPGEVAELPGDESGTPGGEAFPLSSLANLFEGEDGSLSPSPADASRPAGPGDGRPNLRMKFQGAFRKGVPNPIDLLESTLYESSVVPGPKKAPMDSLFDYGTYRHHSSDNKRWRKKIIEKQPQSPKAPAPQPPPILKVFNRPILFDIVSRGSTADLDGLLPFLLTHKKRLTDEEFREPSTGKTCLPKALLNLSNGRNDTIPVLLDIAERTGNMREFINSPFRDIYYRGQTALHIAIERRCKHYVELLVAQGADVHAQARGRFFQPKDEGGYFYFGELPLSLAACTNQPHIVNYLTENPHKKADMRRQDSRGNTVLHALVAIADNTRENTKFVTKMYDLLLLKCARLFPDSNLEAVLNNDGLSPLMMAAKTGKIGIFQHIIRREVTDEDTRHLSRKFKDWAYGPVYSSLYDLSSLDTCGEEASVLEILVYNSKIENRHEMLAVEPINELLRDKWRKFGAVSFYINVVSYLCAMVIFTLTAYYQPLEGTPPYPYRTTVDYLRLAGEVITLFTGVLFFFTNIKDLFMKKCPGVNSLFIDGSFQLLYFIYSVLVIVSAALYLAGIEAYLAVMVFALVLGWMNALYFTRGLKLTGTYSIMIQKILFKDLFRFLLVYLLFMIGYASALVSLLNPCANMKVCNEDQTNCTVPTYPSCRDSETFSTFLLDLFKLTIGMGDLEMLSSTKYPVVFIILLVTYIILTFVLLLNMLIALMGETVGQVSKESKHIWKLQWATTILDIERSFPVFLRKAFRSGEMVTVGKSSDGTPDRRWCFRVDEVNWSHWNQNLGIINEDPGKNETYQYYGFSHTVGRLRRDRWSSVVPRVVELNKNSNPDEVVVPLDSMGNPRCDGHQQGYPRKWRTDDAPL
Description: Example 23. TRPV4 Calcium Assay Methods
Human embryonic kidney 293T (HEK293T/293T) cells are cultured in complete media (Dulbecco's Modified Eagle Medium (DMEM), containing 10% fetal bovine serum (FBS) and 1× penicillin-streptomycin) in a T-75 tissue culture flask. At 90% confluency, cells are detached using TrypLE™ Express cell dissociation buffer. TrypLE™ Express buffer is neutralized by adding culture media in excess. Cells are gently triturated and counted using trypan blue in a Countess 3 automated cell counter. Cells are transferred to a 50 mL conical tube and spun down at 1000 rotations per minute (RPM) for five minutes in a benchtop centrifuge. Media containing detaching enzyme is aspirated off the pellet, followed by resuspension to the desired concentration of 2×10^6 cells per mL in complete DMEM.
Transfection preparations were scaled using a combination of 6 μg of TRPV4 wild-type or mutant plasmid DNA, 36 μL of Fugene6 transfection reagent, and 1000 μL of OptiMEM media for every 2×10^6 cells needed. The transfection mix is left to incubate for 20 minutes at room temperature. Total seeding mixture (1000 μL 2×10^6 cells, 1000 μL transfection mix previously described, and 1000 μL complete DMEM) for one transfection is combined into a 15 mL conical tube. The cells and transfection plasmid are mixed thoroughly and dispensed into a reservoir. This is plated at 25 μL per well in a black 384, black-well, clear-bottom, tissue-culture treated plate. This yields approximately 16,000 cells per well. Plasmid DNA constructs were designed by Actio Biosciences in conjunction with Genscript, and generated by Genscript, for all hTRPV4 wild-type and hTRPV4 P/LP (ClinVar) mutations (G78W, P82S, T891, P97R, R186Q, R232C, R232P, R237G, R237Q, R237 L, R269C, R269H, R269S, G270V, R271P, F273 L, K276E, E278K, G280S, Y281S, R315G, R315W, R316C, R316H, R316 L, R316S, I331F, D333G, S403T, K403T, K407E, S542P, S542Y, L543R, Y591N, R594C, R594H, R594S, G600E, Y602C, R616Q, F617 L, L618P, V6201, A716S, A716T, L735R, T740I, R775K, W785R, E797D, E797K, P799A, P799R, P799S, P799 L, G800D, K801E, P827H, F471del, N797del). The remaining cells are plated in the same manner, in a 384, white-well, clear-bottom, tissue-culture treated plate for expression and relative cell number determination. Plates are placed in the incubator at 37° C. overnight.
Compounds were brought to 10 mM in DMSO. DMSO concentration was kept constant throughout the dilution of any compound. DMSO negative control and concentration-response curves were nanoliter-spotted via PICO8 automated dispenser at 5× test concentration into a 384w clear polypropylene plate containing 1×HBSS+20 mM HEPES buffer. A predetermined concentration equivalent to the EC80 of TRPV4 agonist on hTRPV4 was prepared at 6× in 1×HBSS+20 mM HEPES and loaded into a separate 384-well v-bottom polypropylene plate.
Approximately 18 hours post-transfection, the cell plates were removed from the incubator and equal volume (25 uL) Calcium 6 dye was gently added. Calcium 6 dye containing probenecid (final 5 mM) was prepared per manufacturer's instructions. Cell plate was returned to the incubator for 1 hour, at 37° C.
FLIPR Penta was programmed to add compound using the following settings • Pipettor Head=384 • Read Mode 1 Excitation Wavelength=470_495 • Read Mode 1 Emission Wavelength=515_575 • Read Mode 1 Exposure=0.1000 • Read Mode 1 Gain=6.50 • Read Mode 1 Excitation Intensity=20 • Volume of addition=12.5 μL • Height=40 μL • Speed=15 μL/second
Raw data was exported and analyzed for maximum signal (RFU) after agonist addition—the average baseline (RFU) in the first 15 seconds per well. Data was plotted in GraphPad Prism to determine EC50 or IC50 of the molecules.

[6] = molecular target: recombinant human CYP3A4 enzyme (Homo sapiens, UniProt P08684); experiment: CYP3A4 incubation assay; type: in vitro ADME
Chain of recombinant human CYP3A4 enzyme (P08684 whole entry): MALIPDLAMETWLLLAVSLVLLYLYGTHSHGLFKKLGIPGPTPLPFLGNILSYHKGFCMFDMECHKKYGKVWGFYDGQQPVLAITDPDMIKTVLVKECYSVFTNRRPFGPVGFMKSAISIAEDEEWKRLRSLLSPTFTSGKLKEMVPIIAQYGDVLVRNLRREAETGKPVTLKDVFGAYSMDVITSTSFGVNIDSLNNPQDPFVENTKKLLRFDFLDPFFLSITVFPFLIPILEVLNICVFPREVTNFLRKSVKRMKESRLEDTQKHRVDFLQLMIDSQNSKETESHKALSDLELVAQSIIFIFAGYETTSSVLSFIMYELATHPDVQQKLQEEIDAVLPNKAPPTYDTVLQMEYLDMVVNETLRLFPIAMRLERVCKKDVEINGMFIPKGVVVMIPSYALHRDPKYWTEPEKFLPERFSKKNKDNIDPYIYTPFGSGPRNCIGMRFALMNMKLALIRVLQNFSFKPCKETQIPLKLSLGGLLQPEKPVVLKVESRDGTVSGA
Description: Example 24. CYP3A4 Incubation Assay
Compounds (final concentration […]) were incubated in 100 mM phosphate buffer containing 100 pmol/mL recombinant human CYP3A4 enzyme for 0, 5, 10, 15 and 25 minutes.
Testosterone was used as positive control. Reaction was initiated by the addition of NADPH (final concentration […]) and carried out at 37° C. The reaction was stopped by the addition of 4 volumes of cold acetonitrile (with 100 nM alprazolam, 200 nM labetalol, 200 nM imipramine and 2 μM ketoprofen as internal standards). Samples were centrifuged at 3,220 g for 40 minutes to precipitate protein. 70 μL supernatant was transferred to the analysis plate containing 110 μL of acetonitrile for LC-MS/MS analysis.
The following table indicates the percentage remaining for the indicated examples after incubation with recombinant Human CYP3A4 after 25 minutes under the same conditions as described for Example […].

[7] = 100 pmol/mL recombinant human CYP3A4, 37° C., 0-25 min

Structure (SMILES)	Hepatocytes predicted clearance in rat (Hepatocytes [1]) [mL/min/kg]	Hepatocytes predicted clearance in dog (Hepatocytes [2]) [mL/min/kg]	Hepatocytes predicted clearance in cyno (Hepatocytes [3]) [mL/min/kg]	Hepatocytes predicted clearance in mouse (Hepatocytes [4]) [mL/min/kg]	Hepatocytes predicted clearance in human (Hepatocytes [5]) [mL/min/kg]	IC50 (Human TRPV4) [nM]	CYP3A4 Clint ([6]; human, recombinant enzyme)	CYP3A4 Clint [6, 7]
CC(C)(O)c1cnc(N2C[C@@]3(CCC(C)(C)[C@H](Cn4cnc5ccc(C#N)cc54)C3)OC2=O)cn1 (single isomer, unassigned) [Example 1]	10.8	11.5	4	118	4.5	606		
CC(C)(O)c1cnc(N2C[C@@]3(CCC4(CC4)[C@@H](Cn4cnc5ccc(C#N)cc54)C3)OC2=O)cn1 (single isomer, unassigned) [Example 3]	79.5	17.3	182	131	3.17	852		
CC(C)(O)c1cnc(N2C[C@@]3(CCC4(CC4)[C@](C)(Cn4cnc5ccc(C#N)cc54)C3)OC2=O)cn1 (single isomer, unassigned) [Example 6]	8.3	3.17	120	24.5	6.5	8	<0.07, <0.07 μL/min/pmol CYP450	
CO[C@@H]1CC[C@@]2(CN(c3cnc(C(C)(C)O)cn3)C(=O)O2)C[C@@]1(C)Cn1cnc2ccc(C#N)cc21 (single isomer, unassigned) [Example 10]						158		0.22 μL/min/pmol CYP450 and 0.21 μL/min/pmol CYP450
CC(C)(C)CN1C[C@@]2(CCC(F)(F)[C@H](Cn3cnc4ccc(C#N)cc43)C2)OC1=O (single isomer, unassigned) [Example 11]	251.2	63.3	90.5	515.2	17.3	39		
N#Cc1ccc2ncn(C[C@@H]3C[C@@]4(CCC3(F)F)CN(c3ccccc3Cl)C(=O)O4)c2c1 (single isomer, unassigned) [Example 12]	82.5	284.5	101	449.3	7.5	103		
CCOc1ccccc1N1C[C@@]2(CCC(F)(F)[C@H](Cn3cnc4ccc(C#N)cc43)C2)OC1=O (single isomer, unassigned) [Example 13]						496		
CC(C)(O)c1cnc(N2C[C@@]3(CC[C@@H](F)[C@](C)(Cn4cnc5cc(F)c(C#N)cc54)C3)OC2=O)cn1 (single isomer, unassigned) [Example 18]						9		
CC(C)(O)c1cnc(N2C[C@@]3(CC[C@@H](F)[C@](C)(Cn4cnc5c(Cl)cc(C#N)cc54)C3)OC2=O)cn1 (single isomer, unassigned) [Example 19]						9		
CO[C@]1(Cn2cnc3ccc(C#N)cc32)CCC[C@@]2(CN(c3cnc(C(C)(C)O)cn3)C(=O)O2)C1 [Example 9, 1-(((5S,7R)-3-(5-(2-Hydroxypropan-2-yl)pyrazin-2-yl)-7-methoxy-2-oxo-1-oxa-3-azaspiro[4.5]decan-7-yl)methyl)-1H-benzo[d]imidazole-6-carbonitrile]						213		0.42 μL/min/pmol CYP450 and 0.33 μL/min/pmol CYP450
